In article PMC9851200, “Multiparameter phenotypic screening for endogenous TFEB and TFE3 translocation identifies novel chemical series modulating lysosome function” (Autophagy, 2022):

Key:
Assay type in all cases: binding
[1] = biological target: kinases (KINOMEscan panel) (Homo sapiens, UniProt Q08345); conditions: DDR1; NEW KINOMEscan
[2] = biological target: T1, kinases (KINOMEscan panel) (Homo sapiens, UniProt Q16832); conditions: DDR2; NEW KINOMEscan
T1 sequence (Q16832 22-855): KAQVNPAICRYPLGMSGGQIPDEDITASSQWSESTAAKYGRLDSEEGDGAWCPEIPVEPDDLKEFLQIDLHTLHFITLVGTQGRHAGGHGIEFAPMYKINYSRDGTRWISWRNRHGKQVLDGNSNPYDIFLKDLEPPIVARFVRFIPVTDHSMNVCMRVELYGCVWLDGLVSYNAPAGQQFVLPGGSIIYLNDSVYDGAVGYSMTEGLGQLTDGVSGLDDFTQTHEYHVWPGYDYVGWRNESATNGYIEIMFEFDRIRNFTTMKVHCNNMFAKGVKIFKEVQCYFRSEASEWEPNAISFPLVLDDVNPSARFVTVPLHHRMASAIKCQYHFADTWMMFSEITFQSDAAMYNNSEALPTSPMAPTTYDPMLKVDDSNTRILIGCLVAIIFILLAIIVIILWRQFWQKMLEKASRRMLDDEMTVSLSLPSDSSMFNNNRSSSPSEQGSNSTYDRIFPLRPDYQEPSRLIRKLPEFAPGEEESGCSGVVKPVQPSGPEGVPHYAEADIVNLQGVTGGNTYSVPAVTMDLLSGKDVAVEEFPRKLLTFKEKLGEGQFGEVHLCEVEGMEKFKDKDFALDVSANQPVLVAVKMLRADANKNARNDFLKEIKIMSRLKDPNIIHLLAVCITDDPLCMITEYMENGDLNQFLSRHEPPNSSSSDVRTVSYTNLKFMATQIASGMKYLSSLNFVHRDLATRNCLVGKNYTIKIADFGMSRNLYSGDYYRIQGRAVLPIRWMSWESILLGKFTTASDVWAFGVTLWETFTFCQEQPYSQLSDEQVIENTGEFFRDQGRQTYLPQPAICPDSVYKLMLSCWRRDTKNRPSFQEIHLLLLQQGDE

[3] = biological target: T2, kinases (KINOMEscan panel) (Homo sapiens, UniProt Q8TF76); conditions: HASPIN; NEW KINOMEscan
T2 sequence (Q8TF76 1-798): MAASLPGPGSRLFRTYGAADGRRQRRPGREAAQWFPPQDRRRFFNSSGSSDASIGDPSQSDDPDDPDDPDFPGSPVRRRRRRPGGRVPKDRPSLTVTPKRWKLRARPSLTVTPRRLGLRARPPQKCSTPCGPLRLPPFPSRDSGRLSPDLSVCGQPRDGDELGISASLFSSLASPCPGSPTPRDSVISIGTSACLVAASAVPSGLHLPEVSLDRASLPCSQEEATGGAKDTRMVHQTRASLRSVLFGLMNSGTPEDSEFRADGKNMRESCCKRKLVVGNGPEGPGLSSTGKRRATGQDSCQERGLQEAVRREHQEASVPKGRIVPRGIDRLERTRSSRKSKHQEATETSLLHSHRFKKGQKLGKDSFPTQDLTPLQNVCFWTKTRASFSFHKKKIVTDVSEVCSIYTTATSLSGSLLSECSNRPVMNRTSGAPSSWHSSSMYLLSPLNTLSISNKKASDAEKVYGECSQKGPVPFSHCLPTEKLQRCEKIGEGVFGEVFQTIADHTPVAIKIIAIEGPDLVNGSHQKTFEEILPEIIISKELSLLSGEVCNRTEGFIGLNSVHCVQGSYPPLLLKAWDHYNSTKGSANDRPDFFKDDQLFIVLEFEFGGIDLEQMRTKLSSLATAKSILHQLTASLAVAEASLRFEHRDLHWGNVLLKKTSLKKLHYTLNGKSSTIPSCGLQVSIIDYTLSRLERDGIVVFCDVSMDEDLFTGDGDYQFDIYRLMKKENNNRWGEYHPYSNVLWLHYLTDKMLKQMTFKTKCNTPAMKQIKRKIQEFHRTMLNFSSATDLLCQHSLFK

[4] = biological target: T3, kinases (KINOMEscan panel) (Homo sapiens, UniProt Q9UF33); conditions: kinase EPHA6; NEW KINOMEscan
T3 sequence (Q9UF33 23-1036): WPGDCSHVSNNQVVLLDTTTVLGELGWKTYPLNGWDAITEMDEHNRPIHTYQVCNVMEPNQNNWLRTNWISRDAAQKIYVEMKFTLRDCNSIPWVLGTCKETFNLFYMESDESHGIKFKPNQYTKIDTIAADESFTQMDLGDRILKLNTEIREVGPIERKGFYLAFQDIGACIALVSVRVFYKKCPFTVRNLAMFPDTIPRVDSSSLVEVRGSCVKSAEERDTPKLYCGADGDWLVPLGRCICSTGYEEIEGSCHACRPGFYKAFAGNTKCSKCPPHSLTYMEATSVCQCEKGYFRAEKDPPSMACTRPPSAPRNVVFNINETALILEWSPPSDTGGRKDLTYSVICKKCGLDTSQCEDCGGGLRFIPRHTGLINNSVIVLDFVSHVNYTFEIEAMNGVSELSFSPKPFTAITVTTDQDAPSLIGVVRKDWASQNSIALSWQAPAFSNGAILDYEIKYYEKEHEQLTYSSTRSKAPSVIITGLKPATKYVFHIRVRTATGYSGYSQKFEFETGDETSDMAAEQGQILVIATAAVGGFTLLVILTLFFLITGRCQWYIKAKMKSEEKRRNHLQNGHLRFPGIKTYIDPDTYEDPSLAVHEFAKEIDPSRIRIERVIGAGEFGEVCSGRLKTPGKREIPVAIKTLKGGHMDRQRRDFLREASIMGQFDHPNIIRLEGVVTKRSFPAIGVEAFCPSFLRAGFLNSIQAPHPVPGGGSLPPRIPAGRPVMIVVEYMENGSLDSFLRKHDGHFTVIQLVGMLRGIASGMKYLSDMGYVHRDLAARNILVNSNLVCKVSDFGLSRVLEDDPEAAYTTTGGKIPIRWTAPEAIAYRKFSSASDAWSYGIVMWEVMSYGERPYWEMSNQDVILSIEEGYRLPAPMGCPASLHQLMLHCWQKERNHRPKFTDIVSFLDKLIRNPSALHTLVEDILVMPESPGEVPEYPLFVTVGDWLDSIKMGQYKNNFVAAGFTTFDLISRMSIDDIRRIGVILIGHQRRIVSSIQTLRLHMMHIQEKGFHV

[5] = biological target: kinases (KINOMEscan panel) (Homo sapiens, UniProt Q9UM73, L1196M); conditions: kinase ALK(L1196M); NEW KINOMEscan
Sequence of kinases (KINOMEscan panel) (Homo sapiens, UniProt Q9UM73, L1196M) (Q9UM73 19-1620 L1196M): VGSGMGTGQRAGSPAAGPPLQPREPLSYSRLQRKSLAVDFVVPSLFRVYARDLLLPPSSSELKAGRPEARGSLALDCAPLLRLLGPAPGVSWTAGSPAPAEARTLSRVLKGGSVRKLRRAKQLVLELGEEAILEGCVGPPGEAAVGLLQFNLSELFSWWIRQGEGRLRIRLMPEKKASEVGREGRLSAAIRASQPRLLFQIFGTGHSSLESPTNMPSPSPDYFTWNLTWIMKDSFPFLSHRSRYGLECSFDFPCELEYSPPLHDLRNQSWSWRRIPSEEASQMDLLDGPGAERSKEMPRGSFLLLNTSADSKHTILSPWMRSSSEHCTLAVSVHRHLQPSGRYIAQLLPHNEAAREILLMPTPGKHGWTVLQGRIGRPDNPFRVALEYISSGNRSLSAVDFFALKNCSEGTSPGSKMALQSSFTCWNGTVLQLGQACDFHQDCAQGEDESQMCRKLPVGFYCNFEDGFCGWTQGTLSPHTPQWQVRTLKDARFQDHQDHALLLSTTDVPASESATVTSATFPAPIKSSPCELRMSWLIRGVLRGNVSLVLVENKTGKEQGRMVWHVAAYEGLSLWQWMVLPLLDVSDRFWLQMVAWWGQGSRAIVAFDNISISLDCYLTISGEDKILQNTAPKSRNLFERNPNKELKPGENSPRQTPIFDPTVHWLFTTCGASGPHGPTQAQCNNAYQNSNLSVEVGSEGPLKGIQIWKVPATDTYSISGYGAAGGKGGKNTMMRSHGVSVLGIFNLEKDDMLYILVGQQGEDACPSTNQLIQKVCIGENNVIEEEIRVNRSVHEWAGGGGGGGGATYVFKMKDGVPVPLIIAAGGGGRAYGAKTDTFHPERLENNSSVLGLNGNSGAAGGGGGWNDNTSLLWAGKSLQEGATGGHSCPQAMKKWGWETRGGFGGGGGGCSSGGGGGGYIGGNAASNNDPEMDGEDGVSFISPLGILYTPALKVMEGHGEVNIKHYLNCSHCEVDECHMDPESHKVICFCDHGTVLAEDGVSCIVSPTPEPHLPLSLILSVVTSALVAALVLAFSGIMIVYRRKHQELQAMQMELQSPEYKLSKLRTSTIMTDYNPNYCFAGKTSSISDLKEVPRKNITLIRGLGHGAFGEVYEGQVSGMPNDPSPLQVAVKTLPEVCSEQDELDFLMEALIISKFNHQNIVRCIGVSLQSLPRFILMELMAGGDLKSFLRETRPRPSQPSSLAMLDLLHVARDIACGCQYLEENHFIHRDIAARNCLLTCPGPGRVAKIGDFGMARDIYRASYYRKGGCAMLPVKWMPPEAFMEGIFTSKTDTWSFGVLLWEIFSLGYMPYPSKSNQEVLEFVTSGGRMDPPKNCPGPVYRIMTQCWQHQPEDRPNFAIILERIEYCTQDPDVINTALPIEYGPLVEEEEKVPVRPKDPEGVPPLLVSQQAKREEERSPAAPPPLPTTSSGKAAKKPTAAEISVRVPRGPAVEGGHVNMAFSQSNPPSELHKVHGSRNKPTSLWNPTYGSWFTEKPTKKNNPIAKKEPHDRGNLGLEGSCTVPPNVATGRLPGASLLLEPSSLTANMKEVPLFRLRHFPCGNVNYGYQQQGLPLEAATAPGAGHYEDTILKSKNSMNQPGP

Sequence of kinases (KINOMEscan panel) (Homo sapiens, UniProt Q08345) (Q08345 19-913): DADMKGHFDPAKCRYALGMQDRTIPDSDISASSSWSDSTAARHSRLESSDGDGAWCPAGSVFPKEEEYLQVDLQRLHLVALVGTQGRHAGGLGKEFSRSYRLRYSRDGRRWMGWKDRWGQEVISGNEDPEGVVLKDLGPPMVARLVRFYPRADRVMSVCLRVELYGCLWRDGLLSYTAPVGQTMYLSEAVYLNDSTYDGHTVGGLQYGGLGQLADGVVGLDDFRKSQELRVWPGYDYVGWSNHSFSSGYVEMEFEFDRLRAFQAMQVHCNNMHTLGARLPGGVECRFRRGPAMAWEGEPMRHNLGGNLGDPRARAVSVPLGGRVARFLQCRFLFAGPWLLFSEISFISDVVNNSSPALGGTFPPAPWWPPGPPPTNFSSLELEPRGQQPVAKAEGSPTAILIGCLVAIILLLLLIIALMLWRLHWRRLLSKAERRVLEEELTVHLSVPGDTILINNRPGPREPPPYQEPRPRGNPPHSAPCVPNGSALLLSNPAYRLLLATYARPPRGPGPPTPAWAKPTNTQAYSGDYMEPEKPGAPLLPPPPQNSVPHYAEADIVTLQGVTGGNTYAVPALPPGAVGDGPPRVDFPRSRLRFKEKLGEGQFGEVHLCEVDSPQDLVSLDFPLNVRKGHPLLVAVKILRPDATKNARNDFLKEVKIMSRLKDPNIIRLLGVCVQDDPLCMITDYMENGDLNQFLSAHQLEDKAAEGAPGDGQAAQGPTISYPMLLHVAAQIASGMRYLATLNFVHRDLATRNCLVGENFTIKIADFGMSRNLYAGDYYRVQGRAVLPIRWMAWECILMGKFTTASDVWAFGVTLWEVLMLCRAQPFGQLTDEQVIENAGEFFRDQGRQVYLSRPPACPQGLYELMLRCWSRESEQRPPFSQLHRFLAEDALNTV

Cc1cccc(-c2nc(Nc3ccc4nn(C)cc4c3)c3ccccc3n2)n1 [NK167]
KINOMEscan DDR1 [1]: 0 | KINOMEscan DDR2 [2]: 2 | KINOMEscan HASPIN [3]: 4 | KINOMEscan EPHA6 [4]: 0 | KINOMEscan ALK(L1196M) [5]: 0

Cc1cccc(-c2nc(N(C)c3ccc4ncsc4c3)c3ccccc3n2)n1 [NK-161]
KINOMEscan DDR1 [1]: 0 | KINOMEscan DDR2 [2]: 1 | KINOMEscan HASPIN [3]: 7 | KINOMEscan EPHA6 [4]: 5 | KINOMEscan ALK(L1196M) [5]: 0
